Assay results taken from ChEMBL document CHEMBL5696442, “Discovery of type II inhibitors of TGFβ-activated kinase 1 (TAK1) and mitogen-activated protein kinase kinase kinase kinase 2 (MAP4K2)” (J Med Chem, 2015).

Tests used:
[1] = test system: Tyrosine-protein kinase ABL1 (Homo sapiens), P00519 [T315I]; test: Inhibition of nonphosphorylated ABL1 T315I mutant (unknown origin) at 1 uM by Ambit Kinomescan binding assay relative to control
[2] = molecular target: T1, Serine/threonine-protein kinase ULK1 (Homo sapiens) (UniProt O75385); test: Inhibition of ULK1 Lys2 labeling site in human A-375 cells at 5 uM by KiNativ Profiling analysis relative to control; type: cell-based
T1 sequence (whole entry): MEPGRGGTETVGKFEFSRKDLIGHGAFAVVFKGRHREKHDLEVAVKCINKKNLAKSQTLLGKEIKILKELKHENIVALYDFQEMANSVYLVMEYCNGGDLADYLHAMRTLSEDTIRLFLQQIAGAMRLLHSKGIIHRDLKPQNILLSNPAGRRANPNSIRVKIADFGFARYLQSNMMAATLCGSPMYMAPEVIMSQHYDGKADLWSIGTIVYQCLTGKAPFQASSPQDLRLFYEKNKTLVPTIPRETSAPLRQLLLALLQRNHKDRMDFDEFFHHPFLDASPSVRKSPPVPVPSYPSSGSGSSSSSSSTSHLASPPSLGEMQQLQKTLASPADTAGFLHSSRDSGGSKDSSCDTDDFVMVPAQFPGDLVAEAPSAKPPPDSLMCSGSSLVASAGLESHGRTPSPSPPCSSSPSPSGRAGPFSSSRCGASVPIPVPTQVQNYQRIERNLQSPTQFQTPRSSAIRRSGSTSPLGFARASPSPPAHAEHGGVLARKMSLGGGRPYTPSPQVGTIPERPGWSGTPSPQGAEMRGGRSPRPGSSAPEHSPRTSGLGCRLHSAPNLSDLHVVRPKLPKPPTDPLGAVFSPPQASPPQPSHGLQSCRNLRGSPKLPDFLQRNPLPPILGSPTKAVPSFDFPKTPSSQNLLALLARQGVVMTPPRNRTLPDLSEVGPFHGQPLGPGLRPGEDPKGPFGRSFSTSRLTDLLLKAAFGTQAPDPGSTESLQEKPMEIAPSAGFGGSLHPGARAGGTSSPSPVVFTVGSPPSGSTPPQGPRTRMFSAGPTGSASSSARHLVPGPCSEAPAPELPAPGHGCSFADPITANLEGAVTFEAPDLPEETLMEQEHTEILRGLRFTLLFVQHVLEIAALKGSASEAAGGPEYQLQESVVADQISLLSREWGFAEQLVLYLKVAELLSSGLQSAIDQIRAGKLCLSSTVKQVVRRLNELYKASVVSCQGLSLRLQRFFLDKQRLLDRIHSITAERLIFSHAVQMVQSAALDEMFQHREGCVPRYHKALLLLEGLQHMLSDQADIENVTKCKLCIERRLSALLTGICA

[3] = molecular target: Serine/threonine-protein kinase MARK2 (Homo sapiens) (UniProt Q7KZI7); test: Inhibition of MARK2 Lys2 labeling site harbouring FIVHRDLKAENLLLDADMNIK in human A-375 cells at 0.5 uM by KiNativ Profiling analysis relative to control; type: cell-based
Chain of Serine/threonine-protein kinase MARK2 (Homo sapiens) (Q7KZI7 whole entry, the tested form may be a part): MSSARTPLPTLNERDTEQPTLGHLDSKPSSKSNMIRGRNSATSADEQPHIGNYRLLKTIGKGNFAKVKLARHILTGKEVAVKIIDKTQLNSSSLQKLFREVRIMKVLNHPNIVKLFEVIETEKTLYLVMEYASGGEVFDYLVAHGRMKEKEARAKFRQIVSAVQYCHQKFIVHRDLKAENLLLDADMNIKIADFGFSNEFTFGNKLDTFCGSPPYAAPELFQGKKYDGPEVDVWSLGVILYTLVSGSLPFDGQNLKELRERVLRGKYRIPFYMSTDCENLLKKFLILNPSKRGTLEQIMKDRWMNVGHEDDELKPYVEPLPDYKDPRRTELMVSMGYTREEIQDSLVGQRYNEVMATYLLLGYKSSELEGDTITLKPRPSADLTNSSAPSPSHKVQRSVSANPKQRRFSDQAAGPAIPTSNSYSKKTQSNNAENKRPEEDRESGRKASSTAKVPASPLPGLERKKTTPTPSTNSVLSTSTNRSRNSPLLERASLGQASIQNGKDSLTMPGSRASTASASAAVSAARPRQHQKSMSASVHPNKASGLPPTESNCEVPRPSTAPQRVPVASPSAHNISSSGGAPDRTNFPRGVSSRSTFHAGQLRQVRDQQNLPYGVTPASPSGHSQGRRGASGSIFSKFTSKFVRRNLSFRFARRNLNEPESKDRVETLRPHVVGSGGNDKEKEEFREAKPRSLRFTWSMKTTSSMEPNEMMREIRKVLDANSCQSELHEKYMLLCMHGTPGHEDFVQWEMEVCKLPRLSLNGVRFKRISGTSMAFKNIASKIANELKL

[4] = molecular target: Tyrosine-protein kinase JAK1 (Homo sapiens) (UniProt P23458); test: Inhibition of JAK1 Domain 2 ACT labeling site harbouring IGDFGLTKAIETDKEYYTVK in human Huh-7 cells at 1 uM by KiNativ Profiling analysis relative to control; type: cell-based
Chain of Tyrosine-protein kinase JAK1 (Homo sapiens) (P23458 whole entry, the tested form may be a part): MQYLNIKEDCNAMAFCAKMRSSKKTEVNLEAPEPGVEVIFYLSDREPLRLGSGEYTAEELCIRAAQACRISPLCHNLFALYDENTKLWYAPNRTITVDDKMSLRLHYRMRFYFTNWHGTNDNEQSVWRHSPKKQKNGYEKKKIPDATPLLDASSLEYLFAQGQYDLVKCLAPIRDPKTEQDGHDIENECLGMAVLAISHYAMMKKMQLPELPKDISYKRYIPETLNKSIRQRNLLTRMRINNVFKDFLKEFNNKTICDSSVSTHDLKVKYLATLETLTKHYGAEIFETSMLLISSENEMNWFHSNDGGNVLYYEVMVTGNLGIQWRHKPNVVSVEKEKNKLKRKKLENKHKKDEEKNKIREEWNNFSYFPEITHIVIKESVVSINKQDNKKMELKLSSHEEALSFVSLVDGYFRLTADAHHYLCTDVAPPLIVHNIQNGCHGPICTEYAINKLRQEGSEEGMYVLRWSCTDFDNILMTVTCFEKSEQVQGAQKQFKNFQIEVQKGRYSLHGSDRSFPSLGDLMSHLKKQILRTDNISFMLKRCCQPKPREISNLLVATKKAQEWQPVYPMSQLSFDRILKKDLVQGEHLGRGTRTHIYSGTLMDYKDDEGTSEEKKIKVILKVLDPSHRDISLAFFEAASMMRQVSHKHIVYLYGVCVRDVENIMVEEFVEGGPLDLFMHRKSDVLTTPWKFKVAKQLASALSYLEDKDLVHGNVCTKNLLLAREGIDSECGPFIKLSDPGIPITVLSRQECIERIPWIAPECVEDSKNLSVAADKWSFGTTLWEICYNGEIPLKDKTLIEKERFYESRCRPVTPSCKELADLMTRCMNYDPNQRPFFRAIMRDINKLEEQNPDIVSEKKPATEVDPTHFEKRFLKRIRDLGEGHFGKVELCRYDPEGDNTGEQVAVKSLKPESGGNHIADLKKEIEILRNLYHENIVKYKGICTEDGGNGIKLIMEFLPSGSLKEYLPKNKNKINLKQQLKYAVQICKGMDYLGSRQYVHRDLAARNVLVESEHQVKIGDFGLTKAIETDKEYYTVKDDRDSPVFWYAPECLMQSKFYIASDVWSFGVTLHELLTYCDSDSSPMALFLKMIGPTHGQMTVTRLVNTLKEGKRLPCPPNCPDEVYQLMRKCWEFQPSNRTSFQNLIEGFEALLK

[5] = molecular target: cAMP-dependent protein kinase catalytic subunit beta (Homo sapiens) (UniProt P22694); test: Inhibition of PKAC beta (unknown origin) at 10 uM by Ambit Kinomescan binding assay relative to control
[6] = molecular target: T2, Serine/threonine-protein kinase D1 (Homo sapiens) (UniProt Q15139); test: Inhibition of PKD1 Lys2 labeling site in human Huh-7 cells at 1 uM by KiNativ Profiling analysis relative to control; type: cell-based
T2 sequence (whole entry): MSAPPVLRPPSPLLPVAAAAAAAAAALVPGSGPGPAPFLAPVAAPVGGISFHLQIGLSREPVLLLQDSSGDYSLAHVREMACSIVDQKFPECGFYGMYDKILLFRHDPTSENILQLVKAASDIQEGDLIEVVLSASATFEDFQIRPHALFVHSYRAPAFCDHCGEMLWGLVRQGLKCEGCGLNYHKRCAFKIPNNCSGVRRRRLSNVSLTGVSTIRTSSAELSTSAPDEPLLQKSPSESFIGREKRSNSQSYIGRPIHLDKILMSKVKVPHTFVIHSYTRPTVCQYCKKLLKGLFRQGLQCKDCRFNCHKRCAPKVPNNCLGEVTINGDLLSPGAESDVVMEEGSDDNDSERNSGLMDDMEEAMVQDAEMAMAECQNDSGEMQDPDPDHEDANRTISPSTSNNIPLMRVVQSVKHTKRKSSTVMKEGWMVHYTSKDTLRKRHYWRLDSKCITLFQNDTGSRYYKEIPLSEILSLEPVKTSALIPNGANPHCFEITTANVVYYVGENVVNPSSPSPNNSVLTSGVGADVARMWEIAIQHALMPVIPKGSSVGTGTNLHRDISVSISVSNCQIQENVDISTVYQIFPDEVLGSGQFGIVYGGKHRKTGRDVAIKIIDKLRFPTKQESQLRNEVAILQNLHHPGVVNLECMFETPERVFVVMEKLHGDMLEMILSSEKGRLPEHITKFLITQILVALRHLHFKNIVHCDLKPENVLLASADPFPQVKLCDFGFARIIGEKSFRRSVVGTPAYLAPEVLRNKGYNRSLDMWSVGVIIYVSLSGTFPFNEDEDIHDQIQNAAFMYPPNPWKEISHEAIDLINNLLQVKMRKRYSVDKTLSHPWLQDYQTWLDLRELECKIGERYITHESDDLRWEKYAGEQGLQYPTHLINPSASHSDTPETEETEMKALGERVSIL

CCN1CCN(Cc2ccc(NC(=O)c3ccc(C)c(/C=C/c4cnc5[nH]ccc5c4OC)c3)cc2C(F)(F)F)CC1
inhibition [1]: 11%
inhibition [2]: -1.3%
inhibition [3]: 2.9%

CCN1CCN(Cc2ccc(NC(=O)c3ccc(C)c(Oc4ccnc5[nH]ccc45)c3)cc2C(F)(F)F)CC1
inhibition [4]: -6.4%
inhibition [5]: 14%

CNc1cc(Oc2cc(C(=O)Nc3cc(N4CCN(C)CC4)cc(C(F)(F)F)c3)ccc2C)ncn1
inhibition [6]: 9%
